Experimental data taken from patent US20240207304A1, “Combination Therapies Comprising C/EBP Alpha saRNA” (MiNA Therapeutics Limited, priority 2021, published 2024).

Tested on: NAFLD and IR genes
Test: Effects on NAFLD and IR gene expression in the liver
Excerpt: Abbreviations in Table 4-1 and Table 4-2: NAFLD: non-alcoholic fatty liver disease; IR: insulin resistance; DNL: de novo lipogenesis; FA: fatty acid; TG: triglycerides; LPL: lipoprotein lipase; HP: hepatic lipase; CHOL: cholesterol.

O=C1[C@H](CC[C@H](O)c2ccc(F)cc2)[C@@H](c2ccc(O)cc2)N1c1ccc(F)cc1 [Ezetimibe]
Effect on ACACA (ACC1): minor up
Effect on ACACB (ACC2): up
Effect on APOC3: down
Effect on CD36: minor down
Effect on ChREBP (MLX1PL): up
Effect on DGAT2: minor down
Effect on FAS: down
Effect on LDLR: minor down
Effect on MTP (MTTP1): up
Effect on PPARα: up
Effect on PPARγ: up
Effect on PPARγ-CoA 1α: up
Effect on PPARγ-CoA 1β (PERC): up
Effect on SREBP-1c: up
Effect on mTOR: no change
